For data set [1] the following is noted: relative potency; cited from earlier work.
For data set [2] the following is noted: cited from earlier work.
For data set [3] the following is noted: relative potency; cited from earlier work. This is another data set of the same source.
Data set [4] has as its system carrageenan-induced paw edema. The experiment in a line: Carrageenan-induced paw edema in rats. The data set is classed as in vivo, sprague dawley rats. How it is done: Dexamethasone was given by lavage one hour before carrageenan. […] (1 mg/kg) was given intravenously 15 minutes before carrageenan. Male sprague dawley rats weighing between 200 and 210 g were used. Paw edema was monitored for 6 hours. Results express delta change from basal. Each number is the mean+s.e.m. for n=4 rats per group.
(In general: The carrageenan paw model is a standard test of acute inflammation.)

Data set [5] deals with iNOS. The data set is described as follows: iNOS immunostaining in paw/joint of collagen-induced arthritis rats. It counts as in vivo, Lewis rats. The following applies: day 35; low doses alone: DEX 0.01 mg/kg or M40403 2 mg/kg. How it is done: (§1) Immunohistochemical Localization of Nitrotyrosine, PARS, COX-2 and iNOS At day 35, the joints organs were then trimmed, placed in decalcifying solution for 24 hours and 8 μm sections were prepared from paraffin embedded tissues. After deparaffinization, endogenous peroxidase was quenched with 0.3% H2O2 in 60% methanol for 30 minutes. The sections were permeabilized with 0.1% Triton X-100 in PBS for 20 minutes. Non-specific adsorption was minimized by incubating the section in 2% normal goat serum in phosphate buffered saline for 20 minutes. Endogenous biotin or avidin binding sites were blocked by sequential incubation for 15 minutes with avidin and biotin. Sections were incubated overnight with 1) anti-rabbit polyclonal antibody directed at iNOS (1:1000 in PBS, v/v) (DBA, Milan, Italy) or 2) with anti-COX-2 goat policlonal antibody (1:500 in PBS, v/v) or 3) with anti-nitrotyrosine rabbit policlonal antibody (1:1000 in PBS, v/v) or 4) with anti-poly (ADP-Ribose) goat policlonal antibody rat (1:500 in PBS, v/v). Controls included buffer alone or non-specific purified rabbit IgG. Specific labelling was detected with a biotin-conjugated goat anti-rabbit IgG (for nitrotyrosine and iNOS) or with a biotin-conjugated […] and avidin-biotin peroxidase complex. […]

The subject of data set [6] is nitrotyrosine. The data set is described as follows: Nitrotyrosine immunostaining in paw/joint of collagen-induced arthritis rats. The data set is classed as in vivo, Lewis rats. Conditions: day 35; low doses alone: DEX 0.01 mg/kg or M40403 2 mg/kg. The method, then: as §1
Data set [7] is described as follows: Body weight gain in collagen-induced arthritis rats. The data set is classed as in vivo, Lewis rats. Conditions: day 25 to 35; low doses alone: DEX 0.01 mg/kg or M40403 2 mg/kg. The text has this: Animals were randomly divided into six groups (n=10 for each group) as follows: […]
The subject of data set [8] is PARS. The experiment in a line: PARS immunostaining in paw/joint of collagen-induced arthritis rats. It counts as in vivo, Lewis rats. The following applies: day 35; low doses alone: DEX 0.01 mg/kg or M40403 2 mg/kg. How it is done: as §1
For data set [9], the system named is COX-2. The experiment in a line: COX-2 immunostaining in paw/joint of collagen-induced arthritis rats. The data set is classed as in vivo, Lewis rats. Conditions: day 35; low doses alone: DEX 0.01 mg/kg or M40403 2 mg/kg. The method, then:
as §1

Entries after “also recorded” stand apart in the source; their conditions may differ.

As to `C[C@]12C=CC(=O)C=C1CC[C@@H]1[C@@H]2[C@@H](O)C[C@@]2(C)[C@H]1CC[C@]2(O)C(=O)CO` [Prednisolone], in data set [1], the “Anti-inflammatory Potency” value is reported as 4. In data set [2], the “Duration (T½, Hours)” value is 12 to 36 h. Moreover, the “Na+-retaining Potency” value in [3] is 0.8.

For the compound `C[C@]12CCC(=O)C=C1CC[C@@H]1[C@@H]2C(=O)C[C@@]2(C)[C@H]1CC[C@]2(O)C(=O)CO` [Cortisone], the “Anti-inflammatory Potency” value in [1] was 0.8. Moreover, the “Na+-retaining Potency” value in data set [3] is recorded as 0.8.

Regarding `C[C@H]1C[C@@H]2[C@H]([C@@H](O)C[C@@]3(C)[C@H]2CC[C@]3(O)C(=O)CO)[C@@]2(C)C=CC(=O)C=C12` [6a-Methyl-prednisolone], the “Anti-inflammatory Potency” value in data set [1] is 5. Also, in data set [2], the “Duration (T½, Hours)” value is 12 to 36 h. The “Na+-retaining Potency” value in [3] is recorded as 0.5.

As for `C[C@]12C=CC(=O)C=C1CC[C@@H]1[C@@H]2C(=O)C[C@@]2(C)[C@H]1CC[C@]2(O)C(=O)CO` [Prednisone], the “Duration (T½, Hours)” value in data set [2] is 12 to 36 h.

For the compound `C[C@]12CCC(=O)C=C1CC[C@@H]1[C@@H]2[C@@H](O)C[C@@]2(C)[C@H]1CC[C@]2(O)C(=O)CO` [Cortisol], in data set [1], the “Anti-inflammatory Potency” value is 1. For the same compound, in data set [2], the “Duration (T½, Hours)” value was 8 to 12 h. For the same compound, in data set [3], the “Na+-retaining Potency” value is on record as 1.

Consider “5,10,15,20-tetrakis (2,4,6-trimethyl-3,5-disulfonatophenyl)-porphyrinato iron (III) [FeTMPS]”, for which the “Paw edema, delta change from basal” value in data set [4] (FeTMPS 1 mpk intravenously 15 minutes before carrageenan, 0 h post carrageenan) stood at 0; in data set [4] (FeTMPS 1 mpk, 1 h post carrageenan) it was 0.6 ± 0.02; in data set [4] (FeTMPS 1 mpk, 2 h post carrageenan), 0.9 ± 0.05; in data set [4] (FeTMPS 1 mpk, 3 h post carrageenan) it was 1.1 ± 0.01; in data set [4] (FeTMPS 1 mpk, 4 h post carrageenan), 1.2 ± 0.02; in data set [4] (FeTMPS 1 mpk, 5 h post carrageenan), 1 ± 0.03. Moreover, the “Paw edema, delta change from basal” value in [4] (FeTMPS 1 mpk, 6 h post carrageenan) amounted to 1.3 ± 0.02.

As for `C[C@]12C=CC(=O)C=C1CC[C@H]1[C@@H]3C[C@@H](O)[C@](O)(C(=O)CO)[C@@]3(C)C[C@H](O)[C@@]12F` [Triamcinolone], in [1], the “Anti-inflammatory Potency” value is recorded as 5. Moreover, the “Duration (T½, Hours)” value in data set [2] is 12 to 36 h. In addition, the “Na+-retaining Potency” value in [3] is listed as 0.

As to `C[C@]12CCC(=O)C=C1CC[C@H]1[C@@H]3CC[C@](O)(C(=O)CO)[C@@]3(C)C[C@H](O)[C@@]12F` [Fludrocortisone], in [2], the “Duration (T½, Hours)” value was 8 to 12 h.

As for `[Cl-].[Cl-].[Mn+2].c1cc2nc(c1)CN[C@@H]1CCCC[C@H]1NCCN[C@@H]1CCCC[C@H]1NC2` [M40403], in [5], the “iNOS immunostaining in joint” value is given as “had no effect on iNOS or COX-2 staining”. Further, the “Nitrotyrosine immunostaining in joint” value in [6] was “No significant protective effect”. Also, the Body weight gain entry in data set [7] is recorded as “gained weight in a manner that was similar to CIA rats; also recorded: gained significantly less weight than the normal rats”. In addition, the “PARS immunostaining in joint” value in [8] is “No significant protective effect”. Also, in data set [9], the “COX-2 immunostaining in joint” value is reported as “had no effect on iNOS or COX-2 staining”.

(Values after patent US20040266742A1, “Combination therapy of an sodm and a corticosteroid for prevention and/or treatment of inflammatory disease” (priority 2001, published 2004).)
